The text below walks through data of patent US11166958B2, “4-pyrazin-2-ylmethyl-morpholine derivatives and the use thereof as medicament” (Boehringer Ingelheim International GmbH, priority 2018, dated 2021).

pIC50: −log10 of the molar value.

One experiment deals with NMDA NR1/NR2B receptor (Homo sapiens (Human), UniProt Q13224). The experiment in a line: In vitro NMDA NR1/NR2B cell assay (FLIPR, intracellular calcium induced by glycine/glutamate). The format is cell-based. To be noted: HEK293 NR1/NR2B, 20 μM glycine / 1 μM glutamate, read-out: In vitro NR2B affinity, IC50. The protocol: A human HEK293 cell line with tetracyclin-inducible expression of NMDA NR1/NR2B receptor was used as a test system for compound efficacy and potency. The cell line was purchased from ChanTest, Catalog #CT6121. Compound activity was determined by measuring the effect of compounds on intracellular calcium concentration induced by glycine/glutamate agonism in a FLIPRtetra system (Molecular Devices).
The cells were obtained as frozen cells in cryo-vials and stored until use at −150° C. Cells were grown in culture medium (DMEM/F12, 10% FBS, 5 μg/mL Blasticidin, 150 μg/mL Zeozin, 500 μg/mL Geneticin). […] For sub-culturing the cells were detached from flasks by Versene. For the assay, cells were detached, washed twice with induction medium (DMEM/F12 without glutamine, 10% FBS, 2 μg/mL Tetracycline, 2 mM Ketamine) and seeded to 384 well pure coat amine plates (Becton Dickinson, 50000 cells per well in 50 μl) 48 h prior to assay in induction medium.
The test compounds were dissolved in 100% DMSO at a concentration of 10 mM and in a first step diluted in DMSO to a concentration of 5 mM, followed by serial dilution steps in 100% DMSO. Dilution factor and number of dilution steps may vary according to needs. Typically 8 different concentrations by 1:5 dilutions were prepared in duplicate, further intermediate dilutions (1:37.5) of the substances were carried out with aqueous assay buffer (137 mM NaCl, 4 mM KCl, 1.8 mM CaCl2), 10 mM HEPES, 10 mM Glucose, pH 7.4) resulting in a compound concentration 3 times above the final test concentration and DMSO at 2.7% resulting in 0.9% final DMSO concentration in the assay.
At the assay day cells were washed 3× with assay buffer (as described above), 10 μL buffer remained in the wells after washing. 10 μL Ca kit loading buffer (AAT Bioquest; prepared from the kit containing the following components: Component A: Fluo-8 NW dissolved in 200 μL DMSO and 20 μl of this solution are mixed with 10 ml buffer prepared out of component B and C, Component B: 10× Pluronic® F127 Plus diluted 1:10 in component C, Component C: HHBS (Hanks with 20 mM Hepes) was added to the cells and the plates were incubated with lid for 60 minutes at room temperature. 20 μl assay buffer containing 60 μM glycine (20 μM final) and 3 μM glutamate (1 μM final) was added to column 1-23, column 24 got assay buffer without glycine/glutamate to serve as negative unstimulated control. Fluorescence (indicating the calcium influx as a result of the NR1/NR2B ion channel activation) was read on the FLIPRtetra device for 60 seconds to monitor the glutamate induced effects. After 2 minutes 20 μL of compound dilution prepared as described above or controls (row 1-22) in assay buffer were carefully added to the wells. […] The average of 2 measurements at 5 minutes and 5 min 10 seconds after compound addition is calculated and further used for IC50 calculations. Each assay microtiter compound dilution plate contained wells (in column 23 or 24) with DMSO controls instead of compound as controls for glycine/glutamate induced fluorescence (high controls) and wells with 1 μM of a reference NR2B NAM as low controls (Compound 22; reference: Layton, Mark E et al, ACS Chemical Neuroscience 2011, 2(7), 352-362).
The output file of the reader contains the well number and measured average fluorescence units. For data evaluation and calculation, the measurement of the low control was set as 0% control and the measurement of the high control was set as 100% control. The IC50 values were calculated using the standard 4 parameter logistic regression formula. Calculation: [y=(a−d)/(1+(x/c)^b)+d], a=low value, d=high value; x=conc M; c=IC50 M; b=slope.
A general note: Calcium assays in cells follow changes in intracellular calcium, usually with a dye or a luminescent sensor.

Another experiment has as its target Nav1.6 channel (Homo sapiens (Human), UniProt Q9UQD0). The experiment can be described thus: Nav1.6 inhibition, IonWorks Quattro electrophysiology. Format: cell-based. Here is the method: IonWorks Quattro electrophysiological platform
The compounds were prepared in DMSO at 300× the final assay concentrations of 1 and 5 μM.
The 300× DMSO stock solutions were transferred into assay plates where 2 μl per well of each 300× stock solution were placed. All assay plates were stored at −80° C. until the day of assay.
On the day of the assay, the appropriate assay plate was thawed at room temperature, centrifuged, and 198 μl of external recording solution was added and mixed thoroughly. This provided a 1:100 dilution. A further 1:3 dilution occurred upon addition to the cells in the IonWorks Quattro electrophysiological platform, giving a 1:300 dilution in total. On each assay plate, at least 8 wells were reserved for vehicle control (0.3% DMSO) and at least 8 wells for each positive control specific to the cell line tested. The positive controls were tested at a maximal blocking and an approximate IC50 concentration. As positive control Lidocaine at concentrations of 30 and 1000 μM was used.
The solutions for recording Nav1.6 currents were as follows:
Amphotericin B was used to obtain electrical access to the cell interior at a final concentration of 200 μg/ml in internal recording solution.
State-dependent inhibition: Sodium channels when held at depolarized potential or long test pulse, the channels open and inactivate and then stay inactivated until the membrane potential is stepped back to hyperpolarized potentials, when the inactivated channels recover from inactivation into closed state.
Cells were held at −120 mV. In order to completely inactivate the sodium channels (pulse 1), the cells were pulsed to +0 mV for 2500 ms and stepped back to −120 mV for 10 ms (to completely recover from inactivation, however channels that had drugs bound to them will not recover from inactivation) before stepping to +0 mV for 20 ms (pulse 2).
Assay Control Results Both the positive and vehicle control data associated with each cell line assayed are shown below as an example. The mean is shown for each positive and negative control as solid symbol with the total number of individual well replicates given next to the solid symbol. In addition, the individual data of each well are shown on the graph as open symbols so that the variation about the mean value can be readily assessed.
Shown below are the assay controls for the Nav1.6 IonWorks Quattro assay.
Tables 3 and 4 show the normalized percentage inhibition of Nav1.6 channel. […] (see also the figure Assay Control Results above).
Background: In patch-clamp work, channel activity is measured electrically.

Nav1.6 channel, sequence (Q9UQD0 whole entry): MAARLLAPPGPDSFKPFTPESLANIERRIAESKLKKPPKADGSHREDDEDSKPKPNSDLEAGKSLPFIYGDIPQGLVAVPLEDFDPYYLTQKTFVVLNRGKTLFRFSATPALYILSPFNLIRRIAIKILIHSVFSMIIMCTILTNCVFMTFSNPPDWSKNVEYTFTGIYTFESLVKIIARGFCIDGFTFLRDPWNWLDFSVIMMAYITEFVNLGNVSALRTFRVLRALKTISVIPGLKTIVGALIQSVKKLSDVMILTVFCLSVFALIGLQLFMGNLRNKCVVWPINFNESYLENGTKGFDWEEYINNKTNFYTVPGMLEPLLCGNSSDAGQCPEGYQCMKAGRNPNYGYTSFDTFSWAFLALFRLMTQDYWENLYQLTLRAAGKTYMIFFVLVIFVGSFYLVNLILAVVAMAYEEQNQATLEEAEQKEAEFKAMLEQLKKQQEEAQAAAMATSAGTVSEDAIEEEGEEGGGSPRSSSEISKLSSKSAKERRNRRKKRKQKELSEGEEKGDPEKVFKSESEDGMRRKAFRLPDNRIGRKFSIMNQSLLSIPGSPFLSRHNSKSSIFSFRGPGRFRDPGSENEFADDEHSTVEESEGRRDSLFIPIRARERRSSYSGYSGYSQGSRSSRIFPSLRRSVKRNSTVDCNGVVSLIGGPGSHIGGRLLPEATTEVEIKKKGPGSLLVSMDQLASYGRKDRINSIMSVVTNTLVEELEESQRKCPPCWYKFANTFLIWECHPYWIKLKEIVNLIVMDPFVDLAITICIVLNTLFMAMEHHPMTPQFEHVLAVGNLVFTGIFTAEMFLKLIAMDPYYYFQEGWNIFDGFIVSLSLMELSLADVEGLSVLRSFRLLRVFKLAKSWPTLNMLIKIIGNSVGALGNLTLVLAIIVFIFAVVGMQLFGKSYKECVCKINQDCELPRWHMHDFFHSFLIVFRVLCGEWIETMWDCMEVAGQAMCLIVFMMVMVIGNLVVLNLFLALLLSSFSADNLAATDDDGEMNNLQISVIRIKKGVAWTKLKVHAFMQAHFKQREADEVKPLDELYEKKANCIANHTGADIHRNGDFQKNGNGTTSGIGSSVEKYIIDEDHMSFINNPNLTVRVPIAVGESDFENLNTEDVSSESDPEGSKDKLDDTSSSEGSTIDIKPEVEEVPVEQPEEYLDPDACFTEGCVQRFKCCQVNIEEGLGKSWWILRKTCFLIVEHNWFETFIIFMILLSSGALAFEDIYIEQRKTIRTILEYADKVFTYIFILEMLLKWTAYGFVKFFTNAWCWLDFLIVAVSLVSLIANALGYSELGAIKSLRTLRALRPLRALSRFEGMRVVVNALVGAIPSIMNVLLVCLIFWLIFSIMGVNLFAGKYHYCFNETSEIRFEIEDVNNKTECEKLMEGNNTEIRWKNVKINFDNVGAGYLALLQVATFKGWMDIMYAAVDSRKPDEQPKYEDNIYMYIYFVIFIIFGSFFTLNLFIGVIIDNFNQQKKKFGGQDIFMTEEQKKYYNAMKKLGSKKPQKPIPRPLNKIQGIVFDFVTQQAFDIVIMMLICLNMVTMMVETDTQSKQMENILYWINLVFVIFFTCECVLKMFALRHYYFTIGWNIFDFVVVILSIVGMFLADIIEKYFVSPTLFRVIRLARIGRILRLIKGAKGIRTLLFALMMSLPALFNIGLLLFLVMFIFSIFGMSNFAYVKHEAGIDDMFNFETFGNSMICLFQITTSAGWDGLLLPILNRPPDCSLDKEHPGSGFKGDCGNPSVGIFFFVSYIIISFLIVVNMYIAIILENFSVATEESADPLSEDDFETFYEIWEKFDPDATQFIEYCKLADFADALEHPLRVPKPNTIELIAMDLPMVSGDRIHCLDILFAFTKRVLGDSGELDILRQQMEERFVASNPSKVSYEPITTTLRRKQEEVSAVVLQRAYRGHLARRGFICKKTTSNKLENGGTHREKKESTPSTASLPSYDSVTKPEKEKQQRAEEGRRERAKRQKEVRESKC
NMDA NR1/NR2B receptor, sequence (Q13224 27-1484, other chains not shown): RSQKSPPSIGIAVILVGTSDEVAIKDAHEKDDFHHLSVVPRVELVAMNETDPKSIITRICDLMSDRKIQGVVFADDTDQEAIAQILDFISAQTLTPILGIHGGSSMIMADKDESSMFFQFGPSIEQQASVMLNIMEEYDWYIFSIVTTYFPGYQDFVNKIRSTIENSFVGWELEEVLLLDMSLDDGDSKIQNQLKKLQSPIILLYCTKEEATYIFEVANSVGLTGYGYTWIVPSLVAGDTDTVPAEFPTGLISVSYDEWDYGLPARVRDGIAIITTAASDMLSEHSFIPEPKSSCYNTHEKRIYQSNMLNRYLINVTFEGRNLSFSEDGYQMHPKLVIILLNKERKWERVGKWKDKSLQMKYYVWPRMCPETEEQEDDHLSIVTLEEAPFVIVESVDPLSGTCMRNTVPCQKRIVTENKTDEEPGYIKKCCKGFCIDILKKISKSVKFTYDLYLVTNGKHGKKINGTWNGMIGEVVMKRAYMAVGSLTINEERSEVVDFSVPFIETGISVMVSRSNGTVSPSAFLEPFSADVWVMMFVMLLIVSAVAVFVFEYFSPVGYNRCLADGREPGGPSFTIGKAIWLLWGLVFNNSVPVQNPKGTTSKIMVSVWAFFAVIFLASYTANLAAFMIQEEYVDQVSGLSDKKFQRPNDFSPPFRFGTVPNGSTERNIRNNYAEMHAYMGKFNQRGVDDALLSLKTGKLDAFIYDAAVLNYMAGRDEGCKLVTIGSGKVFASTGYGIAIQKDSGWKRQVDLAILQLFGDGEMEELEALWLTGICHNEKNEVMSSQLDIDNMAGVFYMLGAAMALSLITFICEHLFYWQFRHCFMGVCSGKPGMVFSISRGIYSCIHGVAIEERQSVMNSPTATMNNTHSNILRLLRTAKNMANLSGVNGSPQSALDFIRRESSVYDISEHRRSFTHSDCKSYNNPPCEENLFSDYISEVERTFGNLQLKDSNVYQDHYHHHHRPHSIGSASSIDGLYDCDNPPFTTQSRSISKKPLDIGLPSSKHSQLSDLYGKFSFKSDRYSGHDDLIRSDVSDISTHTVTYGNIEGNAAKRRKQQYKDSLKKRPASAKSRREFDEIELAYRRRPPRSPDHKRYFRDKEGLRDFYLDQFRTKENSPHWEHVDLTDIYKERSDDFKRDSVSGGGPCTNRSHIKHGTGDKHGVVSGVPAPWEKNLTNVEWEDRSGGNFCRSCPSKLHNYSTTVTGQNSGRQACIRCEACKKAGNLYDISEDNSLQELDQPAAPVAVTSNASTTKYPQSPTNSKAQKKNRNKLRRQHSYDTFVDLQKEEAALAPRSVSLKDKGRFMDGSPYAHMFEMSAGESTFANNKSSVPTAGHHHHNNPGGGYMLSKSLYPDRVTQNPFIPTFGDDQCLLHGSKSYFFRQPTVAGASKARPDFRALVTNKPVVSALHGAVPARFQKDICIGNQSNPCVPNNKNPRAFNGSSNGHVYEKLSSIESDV

As to `CNC(=O)[C@@H]1CN(Cc2cnc(Oc3ccccc3)cn2)CCO1` [Example 34], at NMDA NR1/NR2B receptor, the pIC50 is 6.19.

Regarding `CNC(=O)[C@@H]1CN(Cc2cnc(Oc3c(F)cccc3F)cn2)CCO1` [Example 35], the negative-log IC50 (pIC50) at NMDA NR1/NR2B receptor was 6.71. Consider `CNC(=O)[C@@H]1CN(Cc2cnc(Oc3c(C)cccc3F)cn2)CCO1` [Example 36], for which the pIC50 on NMDA NR1/NR2B receptor is 6.27. Regarding `CCN(CC)CC(=O)Nc1c(C)cccc1C` [Lidocaine, reference compound], the inhibition at 1000 µM at Nav1.6 channel (read-out: maximum inhibition at P1 (not normalized)) was in the range of 46.4 to 47.2%. Also, the “inhibition of evoked Nav1.6 currents” value against Nav1.6 channel (reference compound, FIG. 2) is “inhibited evoked currents in a concentration and use dependent manner”.

Regarding `CCCCNc1ccc(C(=O)OCCN(C)C)cc1` [Tetracaine, reference compound], the “state-dependent inhibition of Nav1.6” value on Nav1.6 channel (FIG. 1) is “much stronger at depolarized potentials than at hyperpolarized potential”.

A word on the pIC50: it is the IC50 on a negative log10 scale, so that one unit is a factor of ten. For orientation: inhibition means the share of the control response that was lost under treatment.
